In brackets after ≈: the same amount, converted by molar mass. Counter-ions that a name gives are not always drawn. Like-named read-outs stand apart in the source and are kept apart here. Marks after values point to notes of the source that are not given here. One block for each compound: values may come before it.
How the values were obtained:
[1] = test system: H. pylori; assay: MIC testing by broth dilution, H. pylori; type: cell-based, Helicobacter pylori
Outline: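 Broth dilution MIC determination against H. pylori: a standard inoculum in 100 microliters of Brain Heart Infusion medium was placed in 96 well microplates. Test compounds began at 32 μg/ml in 200 microliters in well one and were serially diluted over a 32 to 0.06 range. After 24 h, plates were scored by eye and the first well without growth was recorded as the MIC.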

[2] = test system: S. epidermidis; assay: MIC testing by broth dilution, S. epidermidis plank; type: cell-based, Staphylococcus epidermidis
Outline: (§1)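 Values are broth-dilution MICs, defined as the well showing no growth on visual reading after 24 h; the tested range was 32 to 0.06 μg/ml, in organism-specific media (LB, Trypticase Soy, Brain Heart Infusion). The C. difficile entries come instead from anaerobic Kirby-Bauer disk zones, normalised to NTZ.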

[3] = test system: C. jejuni; assay: MIC testing by broth dilution, C. jejuni; type: cell-based, Campylobacter jejuni
Outline: as §1

[4] = test system: PFOR (pyruvate ferredoxin oxidoreductase); assay: Direct PFOR enzyme assay; type: biochemical
Procedure: (§2) Representative compounds of the invention were tested in a series of assays against a series of organisms as described above. […] The organisms tested include, C. difficile, H. pylori, C. jejuni, MRSA, S. epidermidis, and E. coli. S. epidermidis and E. coli were tested in the plank and biofilm assay. A disk diffusion assay was also used for C. difficile. Direct PFOR enzyme assays were also performed. All analogues and derivatives were not tested on every organism in every type of assay (the “-” in each table means that it was not tested).

[5] = test system: MRSA; assay: MIC testing by broth dilution, MRSA; type: cell-based, Staphylococcus aureus
Outline: as §1

[6] = test system: E. coli; assay: MIC testing by broth dilution, E. coli plank; type: cell-based, Escherichia coli; conditions: 24 h, read-out: MIC (μM) E. coli Plank
Outline: as §1

[7] = test system: S. epidermidis biofilm; assay: S. epidermidis biofilm assay (activity tables); type: cell-based, Staphylococcus epidermidis
Procedure: Staphylococcal strains were cultured overnight in TSB at 37° C. with shaking, diluted in fresh medium to an OD600 of 0.01 and 200 W was dispensed into sterile flat bottom polystyrene 96 well microtiter plates (Costar 3596, Corning Inc.). […] Each compound and dilution was tested in triplicate. The plates were incubated overnight at 37° C. in a humidified incubator, without shaking and both growth and biofilm accumulation were determined at 16 h.
Following recording of turbidities, the culture medium was aspirated and the wells were washed three times with distilled water, blotted on paper towels, and fixed with 75% ethanol for 10 minutes.
To visualize biofilm material, 0.5% crystal violet was added to each well and after 5 minutes was removed and the wells washed three times with distilled water. Plates were read using a microplate reader at a wavelength of 570 nm. The dye was then extracted by adding 200 W of 95% ethanol, and the absorbance was read again at 570 nm. All assays were performed in triplicate and the mean and standard deviation determined. […]
as §2

[8] = test system: E. coli biofilm; assay: E. coli biofilm assay (activity tables); type: cell-based, Escherichia coli; conditions: biofilm; read-out: MIC (μM) E. coli Biofilm
Outline: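 After 24 h static culture at 37 °C in wells containing NTZ, strain 042 (1:100 inoculum) biofilm was quantified by 0.5% crystal violet absorbance at 570 nm. Planktonic growth was taken from turbidity or LB plate counts as cfu/ml; all runs triplicate, reported as mean and SD.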

[9] = test system: C. difficile; assay: Disk diffusion (Kirby Bower), C. difficile; type: cell-based, Clostridium difficile; conditions: zone of inhibited growth as relative ratio to the zone for NTZ
Outline: as §1

[10] = 2-amino-3,5-dinitrothiophene analogues table, read-out: MIC H. pylori
[11] = planktonic, 2-amino-3,5-dinitrothiophene analogues table, read-out: MIC S. epidermidis Plank
[12] = 2-amino-3,5-dinitrothiophene analogues table, read-out: MIC C. jejuni
[13] = * biphasic initial inhibition followed by uninhibited rate, ** caused some precipitant in extract
[14] = 2-amino-3,5-dinitrothiophene analogues table, read-out: MIC MRSA
[15] = Helicobacter pylori, read-out: MIC H. pylori
[16] = Staphylococcus epidermidis, read-out: MIC S. epidermidis Plank
[17] = Campylobacter jejuni, read-out: MIC C. jejuni
[18] = Staphylococcus aureus, MRSA, read-out: MIC MRSA
[19] = broth dilution, Brain Heart Infusion, 24 h, read-out: MIC (μM) H. pylori
[20] = broth dilution, Trypticase Soy, 24 h, read-out: MIC (μM) S. epidermidis Plank
[21] = broth dilution, Brain Heart Infusion, 24 h, read-out: MIC (μM) C. jejuni
[22] = broth dilution, Trypticase Soy, 24 h, read-out: MIC (μM) MRSA
[23] = Helicobacter pylori, 24 h, read-out: MIC (μM) H. pylori
[24] = Staphylococcus epidermidis, 24 h, read-out: MIC (μM) S. epidermidis Plank
[25] = Campylobacter jejuni, 24 h, read-out: MIC (μM) C. jejuni
[26] = Staphylococcus aureus, MRSA, 24 h, read-out: MIC (μM) MRSA

SMILES: O=C(Nc1sc([N+](=O)[O-])cc1[N+](=O)[O-])c1ccc(Br)s1 [VPC16b2025]
MIC [1, 10]: 2.6 µM (≈ 0.983 µg/mL) | MIC [2, 11]: 15.9 µM (≈ 6.01 µg/mL) | MIC [3, 12]: 2.6 µM (≈ 0.983 µg/mL) | PFOR inhibition relative to nitazoxanide (=100) [4, 13]: 98** % | MIC [5, 14]: 63.5 µM (≈ 24 µg/mL)

SMILES: O=C(Nc1sc([N+](=O)[O-])cc1[N+](=O)[O-])c1cc(C(F)(F)F)ccc1Cl [VPC16b2026, 2-Chloro-N-(3,5-dinitrothiophen-2-yl)-5-(trifluoromethyl)benzamide]
MIC [1, 15]: 0.8 µM (≈ 0.317 µg/mL) | MIC [2, 16]: 15.2 µM (≈ 6.01 µg/mL) | MIC [3, 17]: 2.5 µM (≈ 0.989 µg/mL) | PFOR inhibition relative to nitazoxanide (=100) [4, 13]: 100% | MIC [5, 18]: 30.3 µM (≈ 12 µg/mL)

SMILES: O=C(Nc1sc([N+](=O)[O-])cc1[N+](=O)[O-])c1cccc(C(F)(F)F)c1Cl [VPC16b2028]
MIC [1, 10]: 0.8 µM (≈ 0.317 µg/mL) | MIC [2, 11]: 30.3 µM (≈ 12 µg/mL) | MIC [3, 12]: 1.9 µM (≈ 0.752 µg/mL) | PFOR inhibition relative to nitazoxanide (=100) [4, 13]: 113% | MIC [5, 14]: 30.3 µM (≈ 12 µg/mL)

SMILES: NCCOc1ccccc1C(=O)Nc1sc([N+](=O)[O-])cc1[N+](=O)[O-] [VPC16b2031, 2-(2-Aminoethoxy)-N-(3,5-dinitrothiophen-2-yl)benzamide]
MIC [1, 15]: 1.9 µM (≈ 0.669 µg/mL) | MIC [2, 16]: 25.7 µM (≈ 9.05 µg/mL) | MIC [3, 17]: 1.3 µM (≈ 0.458 µg/mL) | PFOR inhibition relative to nitazoxanide (=100) [4, 13]: 162% | MIC [5, 18]: 82.3 µM (≈ 29 µg/mL)

SMILES: N#Cc1ccc(C(=O)Nc2ncc([N+](=O)[O-])s2)cc1 [VPC161086]
MIC ([6]; broth dilution, LB medium): 87.5 µM (≈ 24 µg/mL) | MIC [1, 19]: 9.1 µM (≈ 2.5 µg/mL) | MIC (μM) S. epidermidis Biofilm [7]: 4.6 µM (≈ 1.26 µg/mL) | MIC [2, 20]: 21.9 µM (≈ 6.01 µg/mL) | MIC [3, 21]: 43.8 µM (≈ 12 µg/mL) | PFOR inhibition relative to nitazoxanide (=100) [4]: 74% | MIC [8]: 58.3 µM (≈ 16 µg/mL) | MIC [5, 22]: 14.6 µM (≈ 4 µg/mL)

SMILES: O=C(Nc1nc(Cl)c([N+](=O)[O-])s1)c1ccccc1 [VPC162087]
MIC ([6]; broth dilution, LB medium): 112.8 µM (≈ 32 µg/mL) | Disk Diffusion (%) C. difficile [9]: 66% | MIC [1, 19]: 8.8 µM (≈ 2.5 µg/mL) | MIC [2, 20]: 35.2 µM (≈ 9.99 µg/mL) | MIC [3, 21]: 7.1 µM (≈ 2.01 µg/mL) | PFOR inhibition relative to nitazoxanide (=100) [4]: 107% | MIC [5, 22]: 112.8 µM (≈ 32 µg/mL)

MIC ([6]; broth dilution, LB medium): 91.0 µM (≈ 32 µg/mL) | MIC [1, 19]: 5.7 µM (≈ 2 µg/mL) | MIC [2, 20]: 8.5 µM (≈ 2.99 µg/mL) | MIC [3, 21]: 34.1 µM (≈ 12 µg/mL) | PFOR inhibition relative to nitazoxanide (=100) [4]: 49** % | MIC [5, 22]: 11.4 µM (≈ 4.01 µg/mL)
SMILES: O=C(Nc1nc(Cl)c([N+](=O)[O-])s1)c1cccc(C(F)(F)F)c1 [VPC162088]
Disk Diffusion (%) C. difficile [9]: 76%

MIC ([6]; Escherichia coli, broth dilution, LB medium): 110 µM (≈ 32 µg/mL) | MIC ([1]; Helicobacter pylori, broth dilution, Brain Heart Infusion, 24 h, read-out: MIC (μM) H. pylori): 6.9 µM (≈ 2 µg/mL) | MIC ([2]; Staphylococcus epidermidis, broth dilution, Trypticase Soy, 24 h, read-out: MIC (μM) S. epidermidis Plank): 82.8 µM (≈ 24 µg/mL) | MIC ([3]; Campylobacter jejuni, broth dilution, Brain Heart Infusion, 24 h, read-out: MIC (μM) C. jejuni): 13.8 µM (≈ 4 µg/mL) | PFOR inhibition relative to nitazoxanide (=100) [4]: 93% | MIC ([5]; Staphylococcus aureus, MRSA, broth dilution, Trypticase Soy, 24 h, read-out: MIC (μM) MRSA): 110 µM (≈ 32 µg/mL)
SMILES: O=C(Nc1nc(Cl)c([N+](=O)[O-])s1)c1cccs1 [VPC162089, N-(4-Chloro-5-nitrothiazol-2-yl)thiophene-2-carboxamide]

SMILES: NCCOc1ccsc1C(=O)Nc1ncc([N+](=O)[O-])s1 [VPC162125, 3-(2-Aminoethoxy)-N-(5-nitrothiazol-2-yl)thiophene-2-carboxamide hydrochloride]
MIC ([6]; Escherichia coli): 91.2 µM | MIC [1, 23]: 0.7 µM | MIC [2, 24]: 91.2 µM | MIC [3, 25]: 11.4 µM | PFOR inhibition relative to nitazoxanide (=100) [4]: 137% | MIC [5, 26]: 91.2 µM

SMILES: NCCCc1ccccc1C(=O)Nc1ncc([N+](=O)[O-])s1 [VPC162134, 2-(3-Aminopropyl)-N-(5-nitrothiazol-2-yl)benzamide hydrochloride]
MIC [1, 23]: 2.9 µM | MIC [2, 24]: 93.3 µM | MIC [3, 25]: 17.5 µM | PFOR inhibition relative to nitazoxanide (=100) [4]: 144% | MIC [5, 26]: 93.3 µM

Reference: patent publication US8835644B2, “Broad spectrum benzothiophene-nitrothiazolide and other antimicrobials” (University of Virginia Patent Foundation, priority 2009, dated 2014)
